# Experiment: Safety (TEAEs), JACKPOT3
# Type: in vivo, human
# Conditions: n = 6
# From the text: The safety monitoring for both JACKPOT2 and JACKPOT3 was similar, included monitoring of adverse events/serious adverse events, clinical safety laboratory tests (clinical chemistry, hematology, coagulation, and urinalysis tests), 12-lead ECG, vital signs (blood pressure, pulse rate, and respiratory rate), and pulmonary function.
structure (smiles),measurement,setting,value
"COc1nn(C)cc1Nc1nccc(-c2c[nH]c3c(NC(=O)[C@@H](C)N4CCN(C)CC4)cccc23)n1 [golidocitinib, (2R)-N-[3-[2-[(3-Methoxy-1-methyl-pyrazol-4-yl)amino]pyrimidin-4-yl]-1H-indol-7-yl]-2-(4-methylpiperazin-1-yl)propenamide]",ALT Increased,25 mg,0 n (%)
same,AST Increased,25 mg,0 n (%)
same,Abdominal discomfort,25 mg,1 (16.7%) n (%)
same,Blood and Lymphatic System Disorders,25 mg,1 (16.7%) n (%)
same,Blood bilirubin increased,25 mg,0 n (%)
same,Blood cholesterol increased,25 mg,0 n (%)
same,C-reactive protein increased,25 mg,1 (16.7%) n (%)
same,Diarrhea,25 mg,1 (16.7%) n (%)
same,ECG QT prolonged,25 mg,0 n (%)
same,Epistaxis,25 mg,0 n (%)
same,Gastrointestinal disorders,25 mg,2 (33.3%) n (%)
same,Glucose urine present,25 mg,0 n (%)
same,Hemoglobin decreased,25 mg,0 n (%)
same,Hypertriglyceridemia,25 mg,0 n (%)
same,"Injury, poisoning and procedural complications",25 mg,1 (16.7%) n (%)
same,Investigations,25 mg,2 (33.3%) n (%)
same,LDH increased,25 mg,0 n (%)
same,LDL increased,25 mg,0 n (%)
same,Leukocytosis,25 mg,1 (16.7%) n (%)
same,Limb injury,25 mg,1 (16.7%) n (%)
same,Metabolism and nutrition disorders,25 mg,0 n (%)
same,Musculoskeletal and connective tissue disorders,25 mg,0 n (%)
same,Musculoskeletal pain,25 mg,0 n (%)
same,Musculoskeletal stiffness,25 mg,0 n (%)
same,Neutrophil count decreased,25 mg,1 (16.7%) n (%)
same,Productive cough,25 mg,1 (16.7%) n (%)
same,"Respiratory, Thoracic and Mediastinal Disorders",25 mg,1 (16.7%) n (%)
same,Rhinorrhea,25 mg,0 n (%)
same,Subjects with at least one TEAE,25 mg,4 (66.7%) n (%)
same,Wound,25 mg,0 n (%)
same,ALT Increased,50 mg,1 (16.7%) n (%)
same,AST Increased,50 mg,2 (33.3%) n (%)
same,Abdominal discomfort,50 mg,0 n (%)
same,Blood and Lymphatic System Disorders,50 mg,0 n (%)
same,Blood bilirubin increased,50 mg,1 (16.7%) n (%)
same,Blood cholesterol increased,50 mg,0 n (%)
same,C-reactive protein increased,50 mg,0 n (%)
same,Diarrhea,50 mg,0 n (%)
same,ECG QT prolonged,50 mg,0 n (%)
same,Epistaxis,50 mg,0 n (%)
same,Gastrointestinal disorders,50 mg,0 n (%)
same,Glucose urine present,50 mg,0 n (%)
same,Hemoglobin decreased,50 mg,0 n (%)
same,Hypertriglyceridemia,50 mg,1 (16.7%) n (%)
same,"Injury, poisoning and procedural complications",50 mg,0 n (%)
same,Investigations,50 mg,3 (50.0%) n (%)
same,LDH increased,50 mg,1 (16.7%) n (%)
same,LDL increased,50 mg,1 (16.7%) n (%)
same,Leukocytosis,50 mg,0 n (%)
same,Limb injury,50 mg,0 n (%)
same,Metabolism and nutrition disorders,50 mg,1 (16.7%) n (%)
same,Musculoskeletal and connective tissue disorders,50 mg,0 n (%)
same,Musculoskeletal pain,50 mg,0 n (%)
same,Musculoskeletal stiffness,50 mg,0 n (%)
same,Neutrophil count decreased,50 mg,0 n (%)
same,Productive cough,50 mg,0 n (%)
same,"Respiratory, Thoracic and Mediastinal Disorders",50 mg,0 n (%)
same,Rhinorrhea,50 mg,0 n (%)
same,Subjects with at least one TEAE,50 mg,3 (50.0%) n (%)
same,Wound,50 mg,0 n (%)
same,ALT Increased,100 mg,1 (16.7%) n (%)
same,AST Increased,100 mg,0 n (%)
same,Abdominal discomfort,100 mg,0 n (%)
same,Blood and Lymphatic System Disorders,100 mg,0 n (%)
same,Blood bilirubin increased,100 mg,0 n (%)
same,Blood cholesterol increased,100 mg,0 n (%)
same,C-reactive protein increased,100 mg,1 (16.7%) n (%)
same,Diarrhea,100 mg,0 n (%)
same,ECG QT prolonged,100 mg,0 n (%)
same,Epistaxis,100 mg,1 (16.7%) n (%)
same,Gastrointestinal disorders,100 mg,0 n (%)
same,Glucose urine present,100 mg,0 n (%)
same,Hemoglobin decreased,100 mg,0 n (%)
same,Hypertriglyceridemia,100 mg,2 (33.3%) n (%)
same,"Injury, poisoning and procedural complications",100 mg,0 n (%)
same,Investigations,100 mg,2 (33.3%) n (%)
same,LDH increased,100 mg,0 n (%)
same,LDL increased,100 mg,0 n (%)
same,Leukocytosis,100 mg,0 n (%)
same,Limb injury,100 mg,0 n (%)
same,Metabolism and nutrition disorders,100 mg,2 (33.3%) n (%)
same,Musculoskeletal and connective tissue disorders,100 mg,1 (16.7%) n (%)
same,Musculoskeletal pain,100 mg,0 n (%)
same,Musculoskeletal stiffness,100 mg,1 (16.7%) n (%)
same,Neutrophil count decreased,100 mg,0 n (%)
same,Productive cough,100 mg,0 n (%)
same,"Respiratory, Thoracic and Mediastinal Disorders",100 mg,1 (16.7%) n (%)
same,Rhinorrhea,100 mg,0 n (%)
same,Subjects with at least one TEAE,100 mg,4 (66.7%) n (%)
same,Wound,100 mg,0 n (%)
same,ALT Increased,150 mg,0 n (%)
same,AST Increased,150 mg,0 n (%)
same,Abdominal discomfort,150 mg,0 n (%)
same,Blood and Lymphatic System Disorders,150 mg,0 n (%)
same,Blood bilirubin increased,150 mg,2 (33.3%) n (%)
same,Blood cholesterol increased,150 mg,1 (16.7%) n (%)
same,C-reactive protein increased,150 mg,1 (16.7%) n (%)
same,Diarrhea,150 mg,1 (16.7%) n (%)
same,ECG QT prolonged,150 mg,1 (16.7%) n (%)
same,Epistaxis,150 mg,0 n (%)
same,Gastrointestinal disorders,150 mg,1 (16.7%) n (%)
same,Glucose urine present,150 mg,1 (16.7%) n (%)
same,Hemoglobin decreased,150 mg,1 (16.7%) n (%)
same,Hypertriglyceridemia,150 mg,2 (33.3%) n (%)
same,"Injury, poisoning and procedural complications",150 mg,1 (16.7%) n (%)
same,Investigations,150 mg,4 (66.7%) n (%)
same,LDH increased,150 mg,0 n (%)
same,LDL increased,150 mg,1 (16.7%) n (%)
same,Leukocytosis,150 mg,0 n (%)
same,Limb injury,150 mg,0 n (%)
same,Metabolism and nutrition disorders,150 mg,2 (33.3%) n (%)
same,Musculoskeletal and connective tissue disorders,150 mg,1 (16.7%) n (%)
same,Musculoskeletal pain,150 mg,1 (16.7%) n (%)
same,Musculoskeletal stiffness,150 mg,0 n (%)
same,Neutrophil count decreased,150 mg,2 (33.3%) n (%)
same,Productive cough,150 mg,0 n (%)
same,"Respiratory, Thoracic and Mediastinal Disorders",150 mg,1 (16.7%) n (%)
same,Rhinorrhea,150 mg,1 (16.7%) n (%)
same,Subjects with at least one TEAE,150 mg,6 (100%) n (%)
same,Wound,150 mg,1 (16.7%) n (%)
